Assay results: article PMC10838953

What was measured:
PIK3CA(I800L) = PIK3CA(I800L) (Homo sapiens, UniProt P42336, I800L); assay: biochemical; conditions: read-out: %Ctrl @ 2000nM
SNRK = SNRK (Homo sapiens, UniProt Q9NRH2); assay: biochemical; conditions: read-out: %Ctrl @ 2000nM
IKK-alpha = IKK-alpha (Homo sapiens, UniProt O15111); assay: biochemical; conditions: read-out: %Ctrl @ 2000nM
PLK3 = PLK3 (Homo sapiens, UniProt Q9H4B4); assay: biochemical; conditions: read-out: %Ctrl @ 2000nM
HEK293 cells = conditions: high concentrations
PIK3CG = PIK3CG (Homo sapiens, UniProt P48736); assay: biochemical; conditions: read-out: %Ctrl @ 2000nM
TIE2 = TIE2 (Homo sapiens, UniProt Q02763); assay: biochemical; conditions: read-out: %Ctrl @ 2000nM
TIE2, sequence (Q02763 23-1124): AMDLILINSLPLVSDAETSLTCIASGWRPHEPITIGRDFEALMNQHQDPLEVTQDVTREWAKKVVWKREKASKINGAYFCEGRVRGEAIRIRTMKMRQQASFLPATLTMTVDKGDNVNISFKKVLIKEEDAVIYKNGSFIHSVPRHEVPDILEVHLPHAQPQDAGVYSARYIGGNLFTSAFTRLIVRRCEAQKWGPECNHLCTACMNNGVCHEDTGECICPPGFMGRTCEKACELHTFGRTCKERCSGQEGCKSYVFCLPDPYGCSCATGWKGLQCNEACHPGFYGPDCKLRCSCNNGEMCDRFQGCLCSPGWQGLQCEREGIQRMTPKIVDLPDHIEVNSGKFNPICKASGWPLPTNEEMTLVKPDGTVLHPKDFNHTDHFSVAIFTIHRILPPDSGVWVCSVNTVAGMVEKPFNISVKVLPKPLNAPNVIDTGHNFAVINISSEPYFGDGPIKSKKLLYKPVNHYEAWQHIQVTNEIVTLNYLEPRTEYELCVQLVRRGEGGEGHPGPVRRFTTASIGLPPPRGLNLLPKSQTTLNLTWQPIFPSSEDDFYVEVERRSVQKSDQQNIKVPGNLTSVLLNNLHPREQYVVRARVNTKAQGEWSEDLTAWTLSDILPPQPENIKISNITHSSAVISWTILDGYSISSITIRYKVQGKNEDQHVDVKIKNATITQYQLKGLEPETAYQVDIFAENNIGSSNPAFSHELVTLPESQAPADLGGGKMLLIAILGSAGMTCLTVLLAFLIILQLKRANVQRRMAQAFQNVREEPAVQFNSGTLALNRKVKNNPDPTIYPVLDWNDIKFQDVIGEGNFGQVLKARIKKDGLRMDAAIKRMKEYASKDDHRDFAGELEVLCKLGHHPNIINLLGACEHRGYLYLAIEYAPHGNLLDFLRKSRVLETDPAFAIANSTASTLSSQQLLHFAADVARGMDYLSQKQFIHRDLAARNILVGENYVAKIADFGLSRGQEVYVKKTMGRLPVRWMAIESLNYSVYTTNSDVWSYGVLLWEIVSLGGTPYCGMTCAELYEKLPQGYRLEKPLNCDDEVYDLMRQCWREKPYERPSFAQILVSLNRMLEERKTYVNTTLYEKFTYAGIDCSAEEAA

FER = FER (Homo sapiens, UniProt P16591); assay: biochemical; conditions: read-out: %Ctrl @ 2000nM
FER, sequence (P16591 whole entry): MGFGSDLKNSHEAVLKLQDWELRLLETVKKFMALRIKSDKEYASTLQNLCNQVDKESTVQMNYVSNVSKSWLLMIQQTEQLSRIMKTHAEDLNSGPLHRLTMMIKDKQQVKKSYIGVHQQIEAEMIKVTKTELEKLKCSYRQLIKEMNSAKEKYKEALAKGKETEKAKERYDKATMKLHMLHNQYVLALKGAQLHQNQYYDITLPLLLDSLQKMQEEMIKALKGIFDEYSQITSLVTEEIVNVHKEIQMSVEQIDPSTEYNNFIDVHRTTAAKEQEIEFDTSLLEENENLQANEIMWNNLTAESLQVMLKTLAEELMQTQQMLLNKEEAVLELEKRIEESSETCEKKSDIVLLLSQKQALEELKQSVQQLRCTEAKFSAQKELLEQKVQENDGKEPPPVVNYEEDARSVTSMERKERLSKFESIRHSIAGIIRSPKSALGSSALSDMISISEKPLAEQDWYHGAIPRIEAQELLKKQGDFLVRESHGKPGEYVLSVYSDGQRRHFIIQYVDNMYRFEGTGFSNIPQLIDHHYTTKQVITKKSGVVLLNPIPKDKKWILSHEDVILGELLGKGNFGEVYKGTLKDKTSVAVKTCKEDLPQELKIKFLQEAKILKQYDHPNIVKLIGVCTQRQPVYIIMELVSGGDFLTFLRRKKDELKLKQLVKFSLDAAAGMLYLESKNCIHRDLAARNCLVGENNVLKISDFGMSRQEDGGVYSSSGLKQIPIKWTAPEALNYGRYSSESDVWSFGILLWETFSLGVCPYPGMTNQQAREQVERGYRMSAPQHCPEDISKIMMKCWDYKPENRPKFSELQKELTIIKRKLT

HUNK = HUNK (Homo sapiens, UniProt P57058); assay: biochemical; conditions: read-out: %Ctrl @ 2000nM
FAK = FAK (Homo sapiens, UniProt Q05397); assay: biochemical; conditions: read-out: %Ctrl @ 2000nM
PKNB(M.tuberculosis) = PKNB(M.tuberculosis) (Mycobacterium tuberculosis, UniProt P9WI81); assay: biochemical; conditions: read-out: %Ctrl @ 2000nM
MEK5 = MEK5 (Homo sapiens, UniProt Q13163); assay: biochemical; conditions: read-out: %Ctrl @ 2000nM
PIP5K2B = PIP5K2B (Homo sapiens, UniProt P78356); assay: biochemical; conditions: read-out: %Ctrl @ 2000nM
[1] = tested on: tumor slices of clear cell renal carcinoma (786-O-luc xenograft); conditions: 10 μM CX-4945, 5 μM AB668
HASPIN = HASPIN (Homo sapiens, UniProt Q8TF76); assay: biochemical; conditions: read-out: %Ctrl @ 2000nM
HASPIN, sequence (Q8TF76 whole entry): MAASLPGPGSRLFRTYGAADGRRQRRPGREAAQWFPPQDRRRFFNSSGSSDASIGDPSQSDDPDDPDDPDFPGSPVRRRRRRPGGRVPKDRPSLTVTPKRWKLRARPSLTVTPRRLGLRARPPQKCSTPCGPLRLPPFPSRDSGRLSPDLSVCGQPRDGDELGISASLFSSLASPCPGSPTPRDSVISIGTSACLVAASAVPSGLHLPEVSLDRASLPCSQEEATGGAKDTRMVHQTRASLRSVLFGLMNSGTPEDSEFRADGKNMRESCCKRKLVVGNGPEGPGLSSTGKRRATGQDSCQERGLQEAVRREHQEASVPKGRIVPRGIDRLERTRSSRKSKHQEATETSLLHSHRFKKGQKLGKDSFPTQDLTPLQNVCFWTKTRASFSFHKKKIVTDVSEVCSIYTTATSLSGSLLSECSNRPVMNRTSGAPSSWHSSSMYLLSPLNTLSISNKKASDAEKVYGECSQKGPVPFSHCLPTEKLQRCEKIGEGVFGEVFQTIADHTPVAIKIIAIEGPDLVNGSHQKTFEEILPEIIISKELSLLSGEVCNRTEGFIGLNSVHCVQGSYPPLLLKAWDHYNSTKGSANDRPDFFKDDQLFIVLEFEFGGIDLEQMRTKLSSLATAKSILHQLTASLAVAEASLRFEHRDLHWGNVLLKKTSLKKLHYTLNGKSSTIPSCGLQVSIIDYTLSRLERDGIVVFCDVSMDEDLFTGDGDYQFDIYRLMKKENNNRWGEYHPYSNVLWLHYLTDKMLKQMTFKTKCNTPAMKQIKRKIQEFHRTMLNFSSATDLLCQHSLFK

PIK3C2B = PIK3C2B (Homo sapiens, UniProt O00750); assay: biochemical; conditions: read-out: %Ctrl @ 2000nM
PDGFRB = PDGFRB (Homo sapiens, UniProt P09619); assay: biochemical; conditions: read-out: %Ctrl @ 2000nM
KIT(A829P) = KIT(A829P) (Homo sapiens, UniProt P10721, A829P); assay: biochemical; conditions: read-out: %Ctrl @ 2000nM
PKN2 = PKN2 (Homo sapiens, UniProt Q16513); assay: biochemical; conditions: read-out: %Ctrl @ 2000nM
ROS1 = ROS1 (Homo sapiens, UniProt P08922); assay: biochemical; conditions: read-out: %Ctrl @ 2000nM
CLK1 = CLK1 (Homo sapiens, UniProt P49759); assay: biochemical; conditions: read-out: %Ctrl @ 2000nM
LKB1 = LKB1 (Homo sapiens, UniProt Q15831); assay: biochemical; conditions: read-out: %Ctrl @ 2000nM
AURKA = AURKA (Homo sapiens, UniProt O14965); assay: biochemical; conditions: read-out: %Ctrl @ 2000nM
NDR1 = NDR1 (Homo sapiens, UniProt Q15208); assay: biochemical; conditions: read-out: %Ctrl @ 2000nM
PIK3CD = PIK3CD (Homo sapiens, UniProt O00329); assay: biochemical; conditions: read-out: %Ctrl @ 2000nM
CK2 in 786-O cells = conditions: read-out: IC50 CK2 activity in cell extracts
[2] = molecular target: ABL1(F317L)-phosphorylated (Homo sapiens, UniProt P00519, F317L); assay: biochemical; conditions: read-out: %Ctrl @ 2000nM
LIMK2 = LIMK2 (Homo sapiens, UniProt P53671); assay: biochemical; conditions: read-out: %Ctrl @ 2000nM
CSNK1A1L = CSNK1A1L (Homo sapiens, UniProt Q8N752); assay: biochemical; conditions: read-out: %Ctrl @ 2000nM
CSNK1A1L, sequence (Q8N752 whole entry): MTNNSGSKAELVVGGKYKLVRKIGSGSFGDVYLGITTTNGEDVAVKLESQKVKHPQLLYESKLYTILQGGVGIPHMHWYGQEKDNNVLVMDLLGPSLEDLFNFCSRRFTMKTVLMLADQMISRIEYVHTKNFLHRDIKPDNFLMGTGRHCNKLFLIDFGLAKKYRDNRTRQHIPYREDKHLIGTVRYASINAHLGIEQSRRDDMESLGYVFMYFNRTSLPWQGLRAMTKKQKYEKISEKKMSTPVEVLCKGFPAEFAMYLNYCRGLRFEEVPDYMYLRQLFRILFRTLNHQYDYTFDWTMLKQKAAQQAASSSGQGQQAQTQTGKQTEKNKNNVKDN

PRKR = PRKR (Homo sapiens, UniProt P19525); assay: biochemical; conditions: read-out: %Ctrl @ 2000nM
[3] = molecular target: EGFR(L747-S752del, P753S) (Homo sapiens, UniProt P00533, DEL747-752/P753S); assay: biochemical; conditions: read-out: %Ctrl @ 2000nM
PKN1 = PKN1 (Homo sapiens, UniProt Q16512); assay: biochemical; conditions: read-out: %Ctrl @ 2000nM
PKN1, sequence (Q16512 whole entry): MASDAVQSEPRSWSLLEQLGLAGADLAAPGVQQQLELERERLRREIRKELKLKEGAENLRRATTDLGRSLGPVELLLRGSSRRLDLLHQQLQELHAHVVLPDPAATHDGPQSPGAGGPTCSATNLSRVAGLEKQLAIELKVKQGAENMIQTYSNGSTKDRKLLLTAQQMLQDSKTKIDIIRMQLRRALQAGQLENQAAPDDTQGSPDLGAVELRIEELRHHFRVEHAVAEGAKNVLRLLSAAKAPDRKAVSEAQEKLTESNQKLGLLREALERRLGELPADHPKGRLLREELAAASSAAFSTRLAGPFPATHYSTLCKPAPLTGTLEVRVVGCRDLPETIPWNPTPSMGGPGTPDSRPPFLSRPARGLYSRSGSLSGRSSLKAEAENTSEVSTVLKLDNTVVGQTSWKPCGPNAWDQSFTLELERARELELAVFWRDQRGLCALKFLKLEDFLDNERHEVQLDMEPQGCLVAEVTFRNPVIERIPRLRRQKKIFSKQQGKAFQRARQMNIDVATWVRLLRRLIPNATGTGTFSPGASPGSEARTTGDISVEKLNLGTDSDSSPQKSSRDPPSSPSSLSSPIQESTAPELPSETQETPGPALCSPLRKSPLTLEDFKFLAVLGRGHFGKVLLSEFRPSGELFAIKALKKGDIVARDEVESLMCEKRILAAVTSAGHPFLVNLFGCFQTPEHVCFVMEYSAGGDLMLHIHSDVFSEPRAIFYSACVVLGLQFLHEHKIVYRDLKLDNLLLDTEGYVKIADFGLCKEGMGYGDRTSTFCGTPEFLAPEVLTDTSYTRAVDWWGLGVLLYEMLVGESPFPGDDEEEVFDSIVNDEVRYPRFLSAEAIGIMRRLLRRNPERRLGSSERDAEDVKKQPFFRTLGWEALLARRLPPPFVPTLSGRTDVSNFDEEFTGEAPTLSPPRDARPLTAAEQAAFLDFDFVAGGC

PDPK1 = PDPK1 (Homo sapiens, UniProt O15530); assay: biochemical; conditions: read-out: %Ctrl @ 2000nM
PAK7 = PAK7 (Homo sapiens, UniProt Q9P286); assay: biochemical; conditions: read-out: %Ctrl @ 2000nM
ERK8 = ERK8 (Homo sapiens, UniProt Q8TD08); assay: biochemical; conditions: read-out: %Ctrl @ 2000nM
GAK = GAK (Homo sapiens, UniProt O14976); assay: biochemical; conditions: read-out: %Ctrl @ 2000nM
[4] = molecular target: ABL1(Q252H)-nonphosphorylated (Homo sapiens, UniProt P00519, Q252H); assay: biochemical; conditions: read-out: %Ctrl @ 2000nM
TAK1 = TAK1 (Homo sapiens, UniProt O43318); assay: biochemical; conditions: read-out: %Ctrl @ 2000nM
[5] = molecular target: ABL1(F317I)-phosphorylated (Homo sapiens, UniProt P00519, F317I); assay: biochemical; conditions: read-out: %Ctrl @ 2000nM

PIK3CA(I800L), sequence (P42336 whole entry I800L): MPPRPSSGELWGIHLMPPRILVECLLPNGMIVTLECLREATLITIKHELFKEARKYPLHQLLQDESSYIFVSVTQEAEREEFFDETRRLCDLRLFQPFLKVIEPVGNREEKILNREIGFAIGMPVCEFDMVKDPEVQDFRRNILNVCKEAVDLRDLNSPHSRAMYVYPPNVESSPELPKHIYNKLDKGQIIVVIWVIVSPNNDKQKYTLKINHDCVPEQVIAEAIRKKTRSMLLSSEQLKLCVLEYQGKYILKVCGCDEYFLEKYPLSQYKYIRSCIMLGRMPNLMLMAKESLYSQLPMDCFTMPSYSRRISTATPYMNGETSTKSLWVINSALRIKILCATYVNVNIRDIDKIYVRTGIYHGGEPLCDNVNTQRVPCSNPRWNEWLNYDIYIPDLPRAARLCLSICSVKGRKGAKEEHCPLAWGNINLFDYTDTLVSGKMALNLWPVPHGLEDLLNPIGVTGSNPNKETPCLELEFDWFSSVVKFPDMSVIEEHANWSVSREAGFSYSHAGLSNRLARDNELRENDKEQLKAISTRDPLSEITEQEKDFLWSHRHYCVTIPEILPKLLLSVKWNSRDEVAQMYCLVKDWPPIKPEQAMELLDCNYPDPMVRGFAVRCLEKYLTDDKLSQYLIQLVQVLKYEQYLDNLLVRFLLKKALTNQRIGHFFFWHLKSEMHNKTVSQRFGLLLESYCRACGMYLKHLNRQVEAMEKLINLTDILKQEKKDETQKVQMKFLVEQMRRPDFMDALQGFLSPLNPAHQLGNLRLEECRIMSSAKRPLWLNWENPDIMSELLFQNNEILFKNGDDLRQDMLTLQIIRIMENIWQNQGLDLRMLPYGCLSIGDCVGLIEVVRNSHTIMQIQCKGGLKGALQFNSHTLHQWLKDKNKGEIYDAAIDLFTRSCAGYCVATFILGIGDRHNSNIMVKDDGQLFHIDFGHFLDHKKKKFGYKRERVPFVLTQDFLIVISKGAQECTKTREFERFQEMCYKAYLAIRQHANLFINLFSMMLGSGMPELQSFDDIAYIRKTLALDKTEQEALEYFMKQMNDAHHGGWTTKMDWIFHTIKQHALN

CC(C)COC(=O)c1[nH]c2ccc(F)cc2c1-c1cn(CC2CCN(CCNS(=O)(=O)c3ccc(CC(C)C)cc3)CC2)nn1 [AB668, isobutyl 5-fluoro-3-(1-((1-(2-((4-isobutylphenyl)sulfonamido)ethyl)piperidin-4-yl)methyl)-1H-1,2,3-triazol-4-yl)-1H-indole-2-carboxylate]
remaining activity at 2 µM (PIK3CA(I800L)): 98%
remaining activity at 2 µM (SNRK): 100%
remaining activity at 2 µM (IKK-alpha): 100%
remaining activity at 2 µM (PLK3): 93%
cytotoxicity (HEK293 cells): no cytotoxicity
remaining activity at 2 µM (PIK3CG): 90%
remaining activity at 2 µM (TIE2): 83%
remaining activity at 2 µM (FER): 100%
remaining activity at 2 µM (HUNK): 88%
remaining activity at 2 µM (FAK): 91%
remaining activity at 2 µM (PKNB(M.tuberculosis)): 100%
remaining activity at 2 µM (MEK5): 100%
remaining activity at 2 µM (PIP5K2B): 100%
cell viability of tumor slices [1]: significantly reduced cell viability
remaining activity at 2 µM (HASPIN): 100%
remaining activity at 2 µM (PIK3C2B): 100%
remaining activity at 2 µM (PDGFRB): 100%
remaining activity at 2 µM (KIT(A829P)): 78%
remaining activity at 2 µM (PKN2): 85%
remaining activity at 2 µM (ROS1): 89%
remaining activity at 2 µM (CLK1): 67%
remaining activity at 2 µM (LKB1): 89%
remaining activity at 2 µM (AURKA): 100%
remaining activity at 2 µM (NDR1): 93%
remaining activity at 2 µM (PIK3CD): 91%
IC50 (CK2 in 786-O cells): 340 ± 70 nM
remaining activity at 2 µM [2]: 78%
remaining activity at 2 µM (LIMK2): 84%
remaining activity at 2 µM (CSNK1A1L): 86%
remaining activity at 2 µM (PRKR): 75%
remaining activity at 2 µM [3]: 98%
remaining activity at 2 µM (PKN1): 91%
remaining activity at 2 µM (PDPK1): 98%
remaining activity at 2 µM (PAK7): 85%
remaining activity at 2 µM (ERK8): 53%
remaining activity at 2 µM (GAK): 99%
remaining activity at 2 µM [4]: 73%
remaining activity at 2 µM (TAK1): 84%
remaining activity at 2 µM [5]: 96%
